The source made the active and inactive calls.
Legend:
[1] = THP-1 cell cytotoxicity, dose response, cytotoxicity control for non-replicating M. tuberculosis project (AID 489025); assay type: functional
[2] = Vero E6 cell cytotoxicity, dose response, cytotoxicity control for non-replicating M. tuberculosis project, secondary assay (AID 492998); assay type: functional, VeroE6; conditions: Vero C1008
cells = assay type: functional
[3] = target: T1, G-protein coupled receptor 35 (Homo sapiens, UniProt Q9HC97); test: GPR35 antagonists blocking zaprinast-driven arrestin recruitment, primary screen, imaging, U2OS, beta-arrestin-GFP, zaprinast agonist (AID 2058); assay type: functional;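 further: antagonist potency meaning inhibition of agonist-induced arrestin redistribution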
T1 sequence (Q9HC97 whole entry): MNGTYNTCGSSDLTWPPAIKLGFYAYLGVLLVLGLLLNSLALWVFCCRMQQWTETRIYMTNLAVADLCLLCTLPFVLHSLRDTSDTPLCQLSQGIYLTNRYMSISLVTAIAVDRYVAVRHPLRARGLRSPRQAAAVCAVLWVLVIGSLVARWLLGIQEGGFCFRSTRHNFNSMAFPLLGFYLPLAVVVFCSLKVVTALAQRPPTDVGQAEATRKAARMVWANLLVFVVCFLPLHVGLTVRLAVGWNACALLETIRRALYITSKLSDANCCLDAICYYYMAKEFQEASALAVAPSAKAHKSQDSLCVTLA

[4] = target: T1, G-protein coupled receptor 35; test: SAR Analysis for the identification of Selective Antagonists of ERK1/2 Activity in GPR35-Overexpressing U2OS Cells. [Related pubchem assays: 2079, 2058 ]; assay type: functional, cell-based
[5] = target: Tyrosine-protein phosphatase non-receptor type 12 (Homo sapiens, UniProt Q05209); test: SAR Selectivity Analysis of small molecule inhibitors of PEST using pCAP in a fluorescence assay. [Related pubchem assays (depositor defined):AID1779, AID1784, AID2135]; assay type: functional
Tyrosine-protein phosphatase non-receptor type 12, sequence (Q05209 whole entry): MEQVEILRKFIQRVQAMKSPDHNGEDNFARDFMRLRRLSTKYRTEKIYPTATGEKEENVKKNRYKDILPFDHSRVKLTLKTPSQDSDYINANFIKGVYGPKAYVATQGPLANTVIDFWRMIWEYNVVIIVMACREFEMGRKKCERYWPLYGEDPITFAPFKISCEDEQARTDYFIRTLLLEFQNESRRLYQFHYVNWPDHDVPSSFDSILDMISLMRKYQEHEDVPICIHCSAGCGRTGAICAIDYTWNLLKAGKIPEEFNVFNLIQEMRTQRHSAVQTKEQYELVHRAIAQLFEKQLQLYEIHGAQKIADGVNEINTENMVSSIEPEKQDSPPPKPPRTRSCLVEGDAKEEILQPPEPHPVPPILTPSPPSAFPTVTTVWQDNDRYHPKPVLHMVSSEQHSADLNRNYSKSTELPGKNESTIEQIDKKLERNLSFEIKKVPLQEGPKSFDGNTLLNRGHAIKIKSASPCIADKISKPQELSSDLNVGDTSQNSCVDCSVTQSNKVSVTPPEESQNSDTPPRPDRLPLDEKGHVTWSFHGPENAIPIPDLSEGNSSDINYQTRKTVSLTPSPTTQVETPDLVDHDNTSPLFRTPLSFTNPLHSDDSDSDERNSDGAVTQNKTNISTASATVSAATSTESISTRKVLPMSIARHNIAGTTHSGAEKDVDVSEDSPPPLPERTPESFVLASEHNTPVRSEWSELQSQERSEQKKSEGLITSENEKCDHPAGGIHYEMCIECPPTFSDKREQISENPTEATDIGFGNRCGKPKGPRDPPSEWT

[6] = target: T2, Tyrosine-protein phosphatase non-receptor type 22 (Homo sapiens, UniProt Q9Y2R2); test: SAR LYP1 Fluorescent Assay using OMFP substrate for In Vitro dose response studies - Set 3. [Related pubchem assays (depositor defined):AID1779, AID1784, AID2140, AID2686]; assay type: functional
T2 sequence (Q9Y2R2 whole entry): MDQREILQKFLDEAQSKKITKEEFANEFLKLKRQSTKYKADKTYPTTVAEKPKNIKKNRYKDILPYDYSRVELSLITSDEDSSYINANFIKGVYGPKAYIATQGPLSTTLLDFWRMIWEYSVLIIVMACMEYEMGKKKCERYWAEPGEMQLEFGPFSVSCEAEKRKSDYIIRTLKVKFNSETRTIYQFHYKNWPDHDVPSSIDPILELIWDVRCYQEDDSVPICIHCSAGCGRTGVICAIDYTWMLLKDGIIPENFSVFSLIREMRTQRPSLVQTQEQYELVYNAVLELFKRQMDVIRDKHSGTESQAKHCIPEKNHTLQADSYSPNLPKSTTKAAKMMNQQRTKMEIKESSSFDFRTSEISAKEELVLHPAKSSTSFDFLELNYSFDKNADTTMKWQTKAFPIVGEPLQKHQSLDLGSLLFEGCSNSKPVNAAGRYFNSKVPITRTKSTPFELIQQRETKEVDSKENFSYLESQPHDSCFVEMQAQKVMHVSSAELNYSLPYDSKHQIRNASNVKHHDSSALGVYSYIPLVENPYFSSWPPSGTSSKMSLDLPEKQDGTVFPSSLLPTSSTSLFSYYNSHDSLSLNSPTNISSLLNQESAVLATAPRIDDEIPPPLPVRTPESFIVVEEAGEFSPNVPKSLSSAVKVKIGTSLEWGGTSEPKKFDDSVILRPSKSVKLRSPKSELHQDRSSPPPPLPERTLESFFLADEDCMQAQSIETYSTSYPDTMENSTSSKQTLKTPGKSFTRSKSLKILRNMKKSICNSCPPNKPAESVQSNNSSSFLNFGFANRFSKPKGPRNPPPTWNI

[7] = target: T3, Tyrosine-protein phosphatase non-receptor type 7 (Homo sapiens, UniProt P35236); test: HePTP (PTPN7) phosphatase inhibitor potency, SAR follow-up, biochemical, set 2 (AID 449736); assay type: functional
T3 sequence (P35236 whole entry): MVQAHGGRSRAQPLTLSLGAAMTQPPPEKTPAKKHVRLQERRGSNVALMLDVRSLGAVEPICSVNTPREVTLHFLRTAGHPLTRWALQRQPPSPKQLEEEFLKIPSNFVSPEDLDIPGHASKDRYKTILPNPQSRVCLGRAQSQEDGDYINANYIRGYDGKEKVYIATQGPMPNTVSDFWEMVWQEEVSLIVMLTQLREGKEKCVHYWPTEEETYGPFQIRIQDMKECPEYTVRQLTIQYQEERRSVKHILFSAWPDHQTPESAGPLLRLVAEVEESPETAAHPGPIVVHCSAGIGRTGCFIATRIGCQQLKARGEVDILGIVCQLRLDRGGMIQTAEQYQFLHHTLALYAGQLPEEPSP

[8] = target: T2, Tyrosine-protein phosphatase non-receptor type 22; test: LYP (PTPN22) phosphatase inhibitor potency, SAR follow-up, biochemical, pCAP fluorogenic substrate, fluorescence, set 3 (AID 449727); assay type: functional
[9] = target: T4, G-protein coupled receptor 55 (Homo sapiens, UniProt Q9Y2T6); test: GPR55 antagonists, SAR follow-up, counter-screen for GPR35 antagonist project, imaging, image-based (AID 2397); assay type: functional
T4 sequence (Q9Y2T6 whole entry): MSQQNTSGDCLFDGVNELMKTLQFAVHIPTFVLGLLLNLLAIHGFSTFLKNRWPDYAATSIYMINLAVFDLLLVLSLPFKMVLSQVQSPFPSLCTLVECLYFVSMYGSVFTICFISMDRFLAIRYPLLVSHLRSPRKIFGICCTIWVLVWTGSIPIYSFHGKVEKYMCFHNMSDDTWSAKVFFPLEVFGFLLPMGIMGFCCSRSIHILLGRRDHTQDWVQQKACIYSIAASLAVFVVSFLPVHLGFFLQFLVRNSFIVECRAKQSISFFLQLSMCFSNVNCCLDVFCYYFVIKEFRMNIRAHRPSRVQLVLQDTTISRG

[10] = growth suppression of PTEN-null colon cells, dose response, cell-based, HCT116 PTEN knockout (AID 1047); assay type: functional;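 further: HCT116 colon tumor cells with PTEN knocked out; cells exposed to compound for 60 hours before readout; potency for loss of cell viability measured by luminescence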
[11] = growth suppression of beta-catenin-knockout colon cells, dose response, cell-based, HCT116, human colon tumor (AID 1045); assay type: functional;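 further: HCT116 colon tumor cells with beta catenin knocked out; cells exposed to compound for 60 hours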
[12] = target: Induced myeloid leukemia cell differentiation protein Mcl-1 (Homo sapiens, UniProt Q07820); assay type: functional
[13] = target: DNA damage-inducible transcript 3 protein (Mus musculus, UniProt P35639); assay type: functional, Cricetulus griseus
[14] = target: T5, Small ubiquitin-related modifier 1 (Homo sapiens, UniProt P63165); test: inhibitors of SUMO1 peptide binding, dose response, biochemical, fluorescence polarization, uHTS hits (AID 624382); assay type: functional; conditions: read-out: IC50_Mean
T5 sequence (P63165 whole entry): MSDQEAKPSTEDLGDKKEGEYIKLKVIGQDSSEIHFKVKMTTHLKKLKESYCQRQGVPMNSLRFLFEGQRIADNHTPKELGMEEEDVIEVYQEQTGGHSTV

[15] = target: T5, Small ubiquitin-related modifier 1; test: inhibitors of SUMO1 partner interactions, dose response, biochemical, FRET (AID 624383); assay type: functional; conditions: read-out: IC50_Mean
Integrin alpha-4 = Integrin alpha-4 (Homo sapiens, UniProt P13612); test: VLA-4 integrin allosteric ligands, SAR follow-up, cell-based, LIBS antibody binding, flow cytometry (AID 488791); assay type: functional
[16] = target: Kappa-type opioid receptor (Homo sapiens, UniProt P41145); test: SAR analysis of small molecule agonists of the kappa opioid receptor via a luminescent beta-arrestin assay - Set 2. [Related pubchem assays (depositor defined):AID1777, AID1785, AID1786, AID1966, AID2133, AID2136, AID2284, AID449737]; assay type: functional
[17] = target: E3 ubiquitin-protein ligase Mdm2/Protein Mdm4 (Homo sapiens, UniProt O15151+Q00987); test: Mdm2-MdmX interaction inhibitors, dose response, luminescence detection (AID 504593); assay type: functional
E3 ubiquitin-protein ligase Mdm2/Protein Mdm4, sequence (Q00987 whole entry): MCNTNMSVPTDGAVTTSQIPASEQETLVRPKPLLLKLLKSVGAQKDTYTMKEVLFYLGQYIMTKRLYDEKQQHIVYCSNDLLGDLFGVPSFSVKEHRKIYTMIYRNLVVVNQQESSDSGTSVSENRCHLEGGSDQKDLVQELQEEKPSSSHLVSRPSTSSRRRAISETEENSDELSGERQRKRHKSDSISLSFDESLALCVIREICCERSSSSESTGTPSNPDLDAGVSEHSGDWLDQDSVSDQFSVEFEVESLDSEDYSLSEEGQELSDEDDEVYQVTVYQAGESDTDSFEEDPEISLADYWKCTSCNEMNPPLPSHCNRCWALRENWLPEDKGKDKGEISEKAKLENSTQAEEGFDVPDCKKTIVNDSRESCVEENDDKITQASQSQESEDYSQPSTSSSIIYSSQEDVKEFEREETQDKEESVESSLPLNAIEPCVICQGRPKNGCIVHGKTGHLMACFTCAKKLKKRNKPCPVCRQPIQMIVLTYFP
E3 ubiquitin-protein ligase Mdm2/Protein Mdm4, sequence (O15151 whole entry): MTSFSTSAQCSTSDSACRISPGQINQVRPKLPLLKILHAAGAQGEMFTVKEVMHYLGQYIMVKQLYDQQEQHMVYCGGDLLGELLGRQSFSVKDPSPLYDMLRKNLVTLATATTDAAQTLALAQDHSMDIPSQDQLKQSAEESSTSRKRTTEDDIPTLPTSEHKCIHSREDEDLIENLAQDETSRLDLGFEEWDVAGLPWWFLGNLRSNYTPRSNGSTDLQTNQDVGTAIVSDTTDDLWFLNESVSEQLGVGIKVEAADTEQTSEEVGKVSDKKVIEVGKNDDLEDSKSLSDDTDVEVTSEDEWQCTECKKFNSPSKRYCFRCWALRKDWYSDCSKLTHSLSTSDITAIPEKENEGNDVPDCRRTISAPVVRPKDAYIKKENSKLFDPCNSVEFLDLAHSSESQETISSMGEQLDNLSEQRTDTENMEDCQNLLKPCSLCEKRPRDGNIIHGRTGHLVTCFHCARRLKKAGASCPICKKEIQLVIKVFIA

Cytochrome P450 3A4 [18] = target: T6, Cytochrome P450 3A4 (Homo sapiens, UniProt P08684); conditions: Potency
T6 sequence (P08684 whole entry): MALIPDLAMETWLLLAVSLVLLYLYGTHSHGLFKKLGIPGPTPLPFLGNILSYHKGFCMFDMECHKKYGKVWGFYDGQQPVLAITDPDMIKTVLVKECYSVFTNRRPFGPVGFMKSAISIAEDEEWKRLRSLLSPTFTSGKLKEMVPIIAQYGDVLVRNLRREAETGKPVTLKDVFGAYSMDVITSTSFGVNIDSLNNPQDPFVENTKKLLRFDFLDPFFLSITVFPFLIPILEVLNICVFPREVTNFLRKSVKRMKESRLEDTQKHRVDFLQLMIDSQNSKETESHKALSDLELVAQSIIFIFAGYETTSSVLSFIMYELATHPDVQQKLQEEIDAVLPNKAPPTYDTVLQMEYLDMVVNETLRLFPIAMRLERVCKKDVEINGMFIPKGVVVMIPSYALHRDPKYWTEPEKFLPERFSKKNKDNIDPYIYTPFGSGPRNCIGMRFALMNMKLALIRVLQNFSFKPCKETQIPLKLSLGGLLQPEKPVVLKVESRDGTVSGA

[19] = target: T7, Short transient receptor potential channel 4 (Mus musculus, UniProt Q9QUQ5); test: TRPC4 positive allosteric modulators, dose response, cell-based, HEK293 TRPC4/mu-opioid, Fluo-4 calcium, EC20 DAMGO (AID 434941); assay type: functional
T7 sequence (Q9QUQ5 whole entry): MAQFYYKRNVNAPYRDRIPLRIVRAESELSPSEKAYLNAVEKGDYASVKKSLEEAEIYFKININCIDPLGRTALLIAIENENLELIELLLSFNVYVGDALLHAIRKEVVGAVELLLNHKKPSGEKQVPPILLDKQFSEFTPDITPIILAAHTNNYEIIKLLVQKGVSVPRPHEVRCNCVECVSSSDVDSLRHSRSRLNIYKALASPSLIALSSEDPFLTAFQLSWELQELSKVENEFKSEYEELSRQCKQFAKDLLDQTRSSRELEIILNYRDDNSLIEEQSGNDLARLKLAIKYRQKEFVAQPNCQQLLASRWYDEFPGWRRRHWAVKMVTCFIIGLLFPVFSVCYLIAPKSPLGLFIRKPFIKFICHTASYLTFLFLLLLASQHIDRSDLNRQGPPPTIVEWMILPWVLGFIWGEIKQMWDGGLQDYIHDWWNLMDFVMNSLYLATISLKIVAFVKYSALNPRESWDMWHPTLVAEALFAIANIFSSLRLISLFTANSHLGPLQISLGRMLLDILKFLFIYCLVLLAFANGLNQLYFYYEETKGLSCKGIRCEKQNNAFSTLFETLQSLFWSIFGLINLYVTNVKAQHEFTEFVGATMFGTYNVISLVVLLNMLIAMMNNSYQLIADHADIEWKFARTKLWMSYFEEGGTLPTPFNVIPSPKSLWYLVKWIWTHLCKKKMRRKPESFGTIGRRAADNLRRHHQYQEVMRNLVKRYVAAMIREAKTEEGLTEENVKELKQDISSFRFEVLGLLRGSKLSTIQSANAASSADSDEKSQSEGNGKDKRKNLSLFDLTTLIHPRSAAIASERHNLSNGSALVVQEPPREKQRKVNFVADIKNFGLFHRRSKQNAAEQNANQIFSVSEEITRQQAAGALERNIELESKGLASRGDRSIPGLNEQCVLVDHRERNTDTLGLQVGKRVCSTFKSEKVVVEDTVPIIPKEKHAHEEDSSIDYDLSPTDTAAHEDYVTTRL

[20] = HEp-2 cell cytotoxicity, dose response, cytotoxicity control for RSV inhibitor project, HTS (AID 2410); assay type: functional; conditions: human respiratory syncytial virus
[21] = target: T4, G-protein coupled receptor 55; test: GPR55 antagonists blocking LPI-driven arrestin recruitment, primary screen, imaging, U2OS, beta-arrestin-GFP, LPI agonist (AID 2013); assay type: functional;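 further: antagonist potency measured as reduced agonist-driven arrestin aggregation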
[22] = target: Glyceraldehyde-3-phosphate dehydrogenase (Homo sapiens, UniProt P04406)
Glyceraldehyde-3-phosphate dehydrogenase, sequence (P04406 whole entry): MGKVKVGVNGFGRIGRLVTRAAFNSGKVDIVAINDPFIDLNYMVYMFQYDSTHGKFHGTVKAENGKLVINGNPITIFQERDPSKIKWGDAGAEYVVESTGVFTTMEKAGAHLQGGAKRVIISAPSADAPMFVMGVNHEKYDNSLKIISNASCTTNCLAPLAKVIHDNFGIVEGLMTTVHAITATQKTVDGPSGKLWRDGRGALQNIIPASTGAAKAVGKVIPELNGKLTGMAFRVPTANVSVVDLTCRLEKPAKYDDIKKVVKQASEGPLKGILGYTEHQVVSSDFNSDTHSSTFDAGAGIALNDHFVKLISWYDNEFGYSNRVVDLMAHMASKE

[23] = target: Alkaline phosphatase, placental type (Homo sapiens, UniProt P05187); test: PLAP enzyme inhibitors, confirmation, biochemical, luminescence (AID 1512); assay type: functional
[24] = target: T8, Alkaline phosphatase, tissue-nonspecific isozyme (Homo sapiens, UniProt P05186); test: human TNAP enzyme inhibitors, SAR follow-up, biochemical, luminescent, dose response (AID 1056)
T8 sequence (P05186 whole entry): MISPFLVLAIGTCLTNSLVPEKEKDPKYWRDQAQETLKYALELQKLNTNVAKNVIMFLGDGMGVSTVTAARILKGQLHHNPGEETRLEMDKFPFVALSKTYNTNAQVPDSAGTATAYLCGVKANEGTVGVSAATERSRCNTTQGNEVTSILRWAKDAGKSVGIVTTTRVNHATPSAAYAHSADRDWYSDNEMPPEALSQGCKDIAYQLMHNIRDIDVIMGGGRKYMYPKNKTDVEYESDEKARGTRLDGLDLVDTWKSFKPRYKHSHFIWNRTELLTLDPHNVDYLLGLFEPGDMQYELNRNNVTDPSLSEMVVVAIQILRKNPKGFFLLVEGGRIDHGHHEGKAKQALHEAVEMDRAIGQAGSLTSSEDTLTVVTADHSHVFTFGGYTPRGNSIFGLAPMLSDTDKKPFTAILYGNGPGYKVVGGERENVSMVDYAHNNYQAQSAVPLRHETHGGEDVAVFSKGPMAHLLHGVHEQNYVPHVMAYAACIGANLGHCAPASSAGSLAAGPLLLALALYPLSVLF

Troponin, cardiac muscle = Troponin, cardiac muscle (Homo sapiens, UniProt P19429+P45379+P63316); test: Fluorescence-based biochemical high throughput dose response assay for activators of the calcium sensitivity of cardiac Regulated Thin Filaments (RTF). [Related pubchem assays (depositor defined):AID493008, AID493018, AID504382, AID504383]; assay type: protein-complex assay
[25] = target: Melanin-concentrating hormone receptor 1 (Homo sapiens, UniProt Q99705); test: Late-stage fluorescence-based counterscreen for antagonists of the G-protein coupled receptor 7 (GPR7): cell-based dose response assay to identify antagonists of the melanin-concentrating hormone receptor 1 (MCHR1). [Related pubchem assays (depositor defined):AID1861, AID1880, AID1952, AID2148, AID2251, AID2257, AID485339]; assay type: functional;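 further: stimulated with 30 nM MCH peptide agonist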
Melanin-concentrating hormone receptor 1, sequence (Q99705 whole entry): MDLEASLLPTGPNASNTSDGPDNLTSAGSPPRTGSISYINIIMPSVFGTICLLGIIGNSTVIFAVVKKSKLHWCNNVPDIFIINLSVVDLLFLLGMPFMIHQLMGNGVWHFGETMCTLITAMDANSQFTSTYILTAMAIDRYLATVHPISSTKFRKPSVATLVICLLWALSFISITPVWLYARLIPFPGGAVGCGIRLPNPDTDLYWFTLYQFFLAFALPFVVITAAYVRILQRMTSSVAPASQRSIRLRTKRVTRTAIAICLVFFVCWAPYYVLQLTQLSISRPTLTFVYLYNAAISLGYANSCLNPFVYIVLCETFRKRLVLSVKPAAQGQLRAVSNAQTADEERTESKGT

[26] = target: Neuropeptides B/W receptor type 1 (Homo sapiens, UniProt P48145); test: GPR7 antagonist potency, late-stage follow-up, cell-based, fluorescence, dose response (AID 463251); assay type: functional
Neuropeptides B/W receptor type 1, sequence (P48145 whole entry, the tested form may be a part): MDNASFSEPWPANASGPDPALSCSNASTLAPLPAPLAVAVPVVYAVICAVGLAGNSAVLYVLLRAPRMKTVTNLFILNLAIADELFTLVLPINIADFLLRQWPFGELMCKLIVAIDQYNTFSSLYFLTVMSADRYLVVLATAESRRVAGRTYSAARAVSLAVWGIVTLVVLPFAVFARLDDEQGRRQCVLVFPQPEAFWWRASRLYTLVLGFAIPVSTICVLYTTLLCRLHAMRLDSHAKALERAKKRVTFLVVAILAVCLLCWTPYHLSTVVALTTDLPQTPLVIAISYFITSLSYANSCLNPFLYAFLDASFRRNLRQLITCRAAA

[27] = target: Type-1 angiotensin II receptor (Homo sapiens, UniProt P30556); test: AT1 receptor agonists, dose response, selectivity assay for APJ receptor agonist project, cell-based, uHTS hits (AID 488865); assay type: functional;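 further: beta-arrestin recruitment to AT1 measured by enzyme fragment complementation luminescence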
Type-1 angiotensin II receptor, sequence (P30556 whole entry, the tested form may be a part): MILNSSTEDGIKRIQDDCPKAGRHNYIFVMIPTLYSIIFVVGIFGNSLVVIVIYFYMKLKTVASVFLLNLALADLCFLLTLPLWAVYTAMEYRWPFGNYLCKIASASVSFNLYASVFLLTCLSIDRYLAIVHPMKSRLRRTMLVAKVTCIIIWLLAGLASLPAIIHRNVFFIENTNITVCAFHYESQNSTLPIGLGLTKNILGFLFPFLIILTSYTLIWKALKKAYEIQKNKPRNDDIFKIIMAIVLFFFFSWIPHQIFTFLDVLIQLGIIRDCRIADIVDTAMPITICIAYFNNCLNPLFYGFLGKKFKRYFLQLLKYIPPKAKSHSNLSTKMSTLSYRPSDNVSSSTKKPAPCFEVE

Cytochrome P450 2C19 = Cytochrome P450 2C19 (Homo sapiens, UniProt P33261); test: Cytochrome panel assay with activity outcomes. Panel member name: p450-cyp2c19 Compounds with AC50 equal or less than 10 uM are considered active; assay type: functional; conditions: read-out: AC50
Cytochrome P450 2C19, sequence (P33261 whole entry): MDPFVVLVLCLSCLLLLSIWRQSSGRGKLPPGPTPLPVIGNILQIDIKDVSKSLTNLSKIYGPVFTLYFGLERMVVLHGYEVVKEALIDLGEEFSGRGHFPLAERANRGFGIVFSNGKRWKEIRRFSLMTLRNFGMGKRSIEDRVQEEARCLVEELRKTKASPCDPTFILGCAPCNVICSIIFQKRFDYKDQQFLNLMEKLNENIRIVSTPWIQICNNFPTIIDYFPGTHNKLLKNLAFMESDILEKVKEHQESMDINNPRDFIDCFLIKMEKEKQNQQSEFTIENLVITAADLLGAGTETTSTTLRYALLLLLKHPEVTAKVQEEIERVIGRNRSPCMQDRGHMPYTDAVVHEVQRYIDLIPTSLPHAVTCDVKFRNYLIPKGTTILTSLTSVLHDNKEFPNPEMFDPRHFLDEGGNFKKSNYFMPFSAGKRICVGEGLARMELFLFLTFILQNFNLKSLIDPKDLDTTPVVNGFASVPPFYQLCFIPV

Cytochrome P450 3A4 [28] = target: T6, Cytochrome P450 3A4

O=c1c2ccccc2nc2cc(O)c(-c3ccccc3)nn12
CC50 [1]: > 40 µM (active)
CC50 [2]: 15.4 µM (active)
IC50 (cells): 4.34 µM (active)

COc1cccc(/C=C2\SC(=S)N(CCCC(=O)Nc3ccc(C(=O)O)cc3)C2=O)c1
IC50 [3]: < 0.5 µM (active)
IC50 [4]: 0.691 µM (active)
IC50 [5]: 32.3 µM (active)
IC50 [6]: > 100 µM (inactive)
IC50 [7]: 8.56 µM (active)
IC50 [8]: > 100 µM (inactive)
IC50 [9]: > 32 µM (inactive)

Fc1cc(F)c2nc(Nc3nc4cc5c(cc4s3)OCO5)sc2c1
EC50 [10]: 18.6 µM (active)
EC50 [11]: 17.3 µM (active)
IC50 [12]: 1.12 µM (active)
Absolute IC50 (CHOP) [13]: 10 µM
IC50 [14]: > 66.6 µM (inactive)
IC50 [15]: 1.53 µM (active)

Cc1ccc(NC(=O)c2cc(N3C(=O)CCC3=O)ccc2N2CCOCC2)cc1
EC50 (Integrin alpha-4): 16.4 µM (active)

O=C(CN(Cc1cccs1)C(=O)c1ccccn1)NC1CCCCCC1
EC50 [16]: > 20 µM (inactive)

CC(C)c1cccc(=O)c(O)c1 [HINOKITIOL]
IC50 [17]: 3.58 µM (active)
AC50 (Cytochrome P450 3A4 [18]): 0.631 µM (inconclusive)

Cc1cc(OCC(=O)NC2CCCCC2)ccc1Cl
EC50 [19]: 1.88 µM (active)

COc1ccc(-c2sc(Nc3ccccc3)n[n+]2-c2ccc(F)cc2)c(C)c1C
CC50 [20]: 28.5 µM (active)
IC50 [21]: 2.11 µM (active)

COc1ccccc1-c1nc(SCc2ccccc2F)n[nH]1
IC50 [22]: > 100 µM (not active)
IC50 [23]: > 100 µM (inactive)
IC50 [24]: 3.41 µM (active)

O=C(COC(=O)c1ccc(O)cc1)Nc1ccc2c(c1)OCCO2
EC50 (Troponin, cardiac muscle): > 71.5 µM (inactive)

CC(C)c1ccc(-n2ncc(Cl)c(Oc3ccc(N)cc3)c2=O)cc1
IC50 [25]: 7 µM (active)
IC50 [26]: 2.5 µM (active)

Clc1ccccc1CSc1nnc(-c2ccncc2)o1
EC50 [27]: > 100 µM (inactive)
AC50 (Cytochrome P450 2C19): 0.126 µM (inconclusive)
AC50 (Cytochrome P450 3A4 [28]): 20 µM (inconclusive)
